Measured values: BigSolDB 2.1

c1ccc(-c2cc3ccccc3[nH]2)cc1
solubility (mole fraction) (in 1,2-dichloroethane, 296.95 K): 0.0186
solubility (mole fraction) (in 1,2-dichloroethane, 302.45 K): 0.0236
solubility (mole fraction) (in 1,2-dichloroethane, 308.55 K): 0.0285
solubility (mole fraction) (in 1,2-dichloroethane, 313.15 K): 0.0325
solubility (mole fraction) (in 1,2-dichloroethane, 318.25 K): 0.0373
solubility (mole fraction) (in 1,2-dichloroethane, 323.25 K): 0.0422
solubility (mole fraction) (in 1,2-dichloroethane, 329.05 K): 0.0498
solubility (mole fraction) (in 1,2-dichloroethane, 334.05 K): 0.0575
solubility (mole fraction) (in 1,2-dichloroethane, 338.55 K): 0.0666
solubility (mole fraction) (in 1,4-dioxane, 289.05 K): 0.0403
solubility (mole fraction) (in 1,4-dioxane, 293.15 K): 0.0507
solubility (mole fraction) (in 1,4-dioxane, 299.15 K): 0.0625
solubility (mole fraction) (in 1,4-dioxane, 303.95 K): 0.0735
solubility (mole fraction) (in 1,4-dioxane, 308.95 K): 0.0903
solubility (mole fraction) (in 1,4-dioxane, 313.65 K): 0.114
solubility (mole fraction) (in 1,4-dioxane, 318.65 K): 0.145
solubility (mole fraction) (in 1,4-dioxane, 324.05 K): 0.172
solubility (mole fraction) (in 1,4-dioxane, 329.35 K): 0.201
solubility (mole fraction) (in 1,4-dioxane, 334.15 K): 0.239
solubility (mole fraction) (in MTBE, 289.05 K): 0.0337
solubility (mole fraction) (in MTBE, 293.15 K): 0.0351
solubility (mole fraction) (in MTBE, 299.15 K): 0.0383
solubility (mole fraction) (in MTBE, 303.95 K): 0.0406
solubility (mole fraction) (in MTBE, 308.95 K): 0.0428
solubility (mole fraction) (in MTBE, 313.65 K): 0.0452
solubility (mole fraction) (in MTBE, 318.65 K): 0.049
solubility (mole fraction) (in MTBE, 324.05 K): 0.0522
solubility (mole fraction) (in MTBE, 329.35 K): 0.0558
solubility (mole fraction) (in MTBE, 334.15 K): 0.0596
solubility (mole fraction) (in THF, 289.05 K): 0.187
solubility (mole fraction) (in THF, 293.15 K): 0.194
solubility (mole fraction) (in THF, 299.15 K): 0.203
solubility (mole fraction) (in THF, 303.95 K): 0.211
solubility (mole fraction) (in THF, 308.95 K): 0.218
solubility (mole fraction) (in THF, 313.65 K): 0.225
solubility (mole fraction) (in THF, 318.65 K): 0.232
solubility (mole fraction) (in THF, 324.05 K): 0.24
solubility (mole fraction) (in THF, 329.35 K): 0.248
solubility (mole fraction) (in THF, 334.15 K): 0.256
solubility (mole fraction) (in acetone, 289.05 K): 0.0951
solubility (mole fraction) (in acetone, 293.15 K): 0.106
solubility (mole fraction) (in acetone, 299.15 K): 0.111
solubility (mole fraction) (in acetone, 303.95 K): 0.122
solubility (mole fraction) (in acetone, 308.95 K): 0.132
solubility (mole fraction) (in acetone, 313.65 K): 0.142
solubility (mole fraction) (in acetone, 318.65 K): 0.15
solubility (mole fraction) (in acetone, 324.05 K): 0.16
solubility (mole fraction) (in acetone, 329.35 K): 0.172
solubility (mole fraction) (in acetonitrile, 289.05 K): 0.0144
solubility (mole fraction) (in acetonitrile, 293.15 K): 0.0164
solubility (mole fraction) (in acetonitrile, 299.15 K): 0.02
solubility (mole fraction) (in acetonitrile, 303.95 K): 0.0237
solubility (mole fraction) (in acetonitrile, 308.95 K): 0.0283
solubility (mole fraction) (in acetonitrile, 313.65 K): 0.0328
solubility (mole fraction) (in acetonitrile, 318.65 K): 0.038
solubility (mole fraction) (in acetonitrile, 324.05 K): 0.0446
solubility (mole fraction) (in acetonitrile, 329.35 K): 0.0533
solubility (mole fraction) (in acetonitrile, 334.15 K): 0.0604
solubility (mole fraction) (in ethanol, 296.95 K): 0.0109
solubility (mole fraction) (in ethanol, 302.45 K): 0.012
solubility (mole fraction) (in ethanol, 308.55 K): 0.014
solubility (mole fraction) (in ethanol, 313.15 K): 0.0154
solubility (mole fraction) (in ethanol, 318.25 K): 0.0173
solubility (mole fraction) (in ethanol, 323.25 K): 0.0187
solubility (mole fraction) (in ethanol, 329.05 K): 0.0217
solubility (mole fraction) (in ethanol, 334.05 K): 0.0249
solubility (mole fraction) (in ethanol, 338.55 K): 0.0274
solubility (mole fraction) (in ethyl acetate, 289.05 K): 0.0634
solubility (mole fraction) (in ethyl acetate, 293.15 K): 0.0694
solubility (mole fraction) (in ethyl acetate, 299.15 K): 0.0761
solubility (mole fraction) (in ethyl acetate, 303.95 K): 0.0814
solubility (mole fraction) (in ethyl acetate, 308.95 K): 0.0879
solubility (mole fraction) (in ethyl acetate, 313.65 K): 0.0951
solubility (mole fraction) (in ethyl acetate, 318.65 K): 0.101
solubility (mole fraction) (in ethyl acetate, 324.05 K): 0.11
solubility (mole fraction) (in ethyl acetate, 329.35 K): 0.119
solubility (mole fraction) (in ethyl acetate, 334.15 K): 0.128
solubility (mole fraction) (in isopropanol, 296.95 K): 0.00786
solubility (mole fraction) (in isopropanol, 302.45 K): 0.00963
solubility (mole fraction) (in isopropanol, 308.55 K): 0.0115
solubility (mole fraction) (in isopropanol, 313.15 K): 0.0125
solubility (mole fraction) (in isopropanol, 318.25 K): 0.0148
solubility (mole fraction) (in isopropanol, 323.25 K): 0.0168
solubility (mole fraction) (in isopropanol, 329.05 K): 0.0185
solubility (mole fraction) (in isopropanol, 334.05 K): 0.0218
solubility (mole fraction) (in isopropanol, 338.55 K): 0.0233
solubility (mole fraction) (in methanol, 296.95 K): 0.00571
solubility (mole fraction) (in methanol, 302.45 K): 0.00709
solubility (mole fraction) (in methanol, 308.55 K): 0.00835
solubility (mole fraction) (in methanol, 313.15 K): 0.00941
solubility (mole fraction) (in methanol, 318.25 K): 0.0107
solubility (mole fraction) (in methanol, 323.25 K): 0.0119
solubility (mole fraction) (in methanol, 329.05 K): 0.0136
solubility (mole fraction) (in methanol, 334.05 K): 0.016
solubility (mole fraction) (in methanol, 338.55 K): 0.017
solubility (mole fraction) (in n-butanol, 296.95 K): 0.0123
solubility (mole fraction) (in n-butanol, 302.45 K): 0.0141
solubility (mole fraction) (in n-butanol, 308.55 K): 0.0163
solubility (mole fraction) (in n-butanol, 313.15 K): 0.0181
solubility (mole fraction) (in n-butanol, 318.25 K): 0.0212
solubility (mole fraction) (in n-butanol, 323.25 K): 0.0241
solubility (mole fraction) (in n-butanol, 329.05 K): 0.0276
solubility (mole fraction) (in n-butanol, 334.05 K): 0.0311
solubility (mole fraction) (in n-butanol, 338.55 K): 0.0357
solubility (mole fraction) (in n-propanol, 296.95 K): 0.0104
solubility (mole fraction) (in n-propanol, 302.45 K): 0.012
solubility (mole fraction) (in n-propanol, 308.55 K): 0.0134
solubility (mole fraction) (in n-propanol, 313.15 K): 0.0156
solubility (mole fraction) (in n-propanol, 318.25 K): 0.0177
solubility (mole fraction) (in n-propanol, 323.25 K): 0.0206
solubility (mole fraction) (in n-propanol, 329.05 K): 0.0233
solubility (mole fraction) (in n-propanol, 334.05 K): 0.0269
solubility (mole fraction) (in n-propanol, 338.55 K): 0.03
solubility (mole fraction) (in sec-butanol, 296.95 K): 0.00879
solubility (mole fraction) (in sec-butanol, 302.45 K): 0.0111
solubility (mole fraction) (in sec-butanol, 308.55 K): 0.014
solubility (mole fraction) (in sec-butanol, 313.15 K): 0.0157
solubility (mole fraction) (in sec-butanol, 318.25 K): 0.0182
solubility (mole fraction) (in sec-butanol, 323.25 K): 0.022
solubility (mole fraction) (in sec-butanol, 329.05 K): 0.0271
solubility (mole fraction) (in sec-butanol, 334.05 K): 0.0307
solubility (mole fraction) (in sec-butanol, 338.55 K): 0.0353
solubility (mole fraction) (in toluene, 289.05 K): 0.00911
solubility (mole fraction) (in toluene, 293.15 K): 0.0101
solubility (mole fraction) (in toluene, 299.15 K): 0.0122
solubility (mole fraction) (in toluene, 303.95 K): 0.0141
solubility (mole fraction) (in toluene, 308.95 K): 0.0167
solubility (mole fraction) (in toluene, 313.65 K): 0.0191
solubility (mole fraction) (in toluene, 318.65 K): 0.0222
solubility (mole fraction) (in toluene, 324.05 K): 0.0255
solubility (mole fraction) (in toluene, 329.35 K): 0.0298
solubility (mole fraction) (in toluene, 334.15 K): 0.0342
